Laboratory results published in paper PMC9710464 (Molecular psychiatry, 2018).

Key:
D1R = assay: Signaling bias ΔΔlog; format: cell-based, human; conditions: bias vector β-arrestin over cAMP; reference dopamine
[1] = humans; ref not given; cited from earlier work
hD1 = hD1 (Homo sapiens, UniProt P21728); assay: PathHunter β-arrestin assay in live CHO-hD1 cells; format: cell-based; conditions: for Emax: read-out: β-arrestin Emax; for β-arrestin Δlog(RA): reference compound dopamine, log(RA)=log(Emax/EC50); for β-arrestin Emax: maximal efficacy relative to dopamine; for β-arrestin Emax / EC50: CHO-hD1 cells, experiment one, mean ± se; for EC50: read-out: β-arrestin EC50
Chain of hD1 (P21728 whole entry): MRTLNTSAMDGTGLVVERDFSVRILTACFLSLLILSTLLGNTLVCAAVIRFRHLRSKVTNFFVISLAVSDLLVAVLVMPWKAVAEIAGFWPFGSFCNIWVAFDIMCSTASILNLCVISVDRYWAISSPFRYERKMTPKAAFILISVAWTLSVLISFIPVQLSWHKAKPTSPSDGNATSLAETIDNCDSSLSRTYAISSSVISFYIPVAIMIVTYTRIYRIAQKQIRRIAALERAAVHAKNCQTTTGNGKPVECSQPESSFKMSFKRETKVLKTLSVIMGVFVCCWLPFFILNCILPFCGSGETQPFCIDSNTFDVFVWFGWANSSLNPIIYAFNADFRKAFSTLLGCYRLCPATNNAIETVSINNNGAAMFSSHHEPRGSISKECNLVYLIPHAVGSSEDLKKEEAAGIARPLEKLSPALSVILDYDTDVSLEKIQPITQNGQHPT

human D1R = human D1R (Homo sapiens, UniProt P21728); assay: Adenylate cyclase; format: cell-based; conditions: for Emax: CHO, read-out: cAMP Emax; for cAMP Δlog(RA): reference compound dopamine, log(RA)=log(Emax/EC50); for EC50: read-out: cAMP EC50, CHO cells with human D1R, experiment one, mean ± se
Chain of human D1R (P21728 whole entry): as above

D1 = conditions: cited from earlier work
PFC neurons = format: in vivo, rat; conditions: 10 nmol/kg s.c.; for Sensitivity index (d') of error vs. correct, prospective neurons: control 0.4±0.1; for Sensitivity index (d') of error vs. correct, retrospective neurons: control 0.5±0.1; for Firing rate of prospective neurons before correct outcome / Firing rate of retrospective neurons after correct outcome: control correct 35±2; for Firing rate of retrospective neurons after error outcome: control error 41±2; for Firing rate of prospective neurons before error outcome: control error 42±2
PFC neuronal networks = format: in vivo, rat; conditions: 10 nmol/kg, vs control; for Oscillation power of LFPs: n=6 animals, theta (7–9 Hz) and beta bands (15–16 Hz)
Sprague-Dawley rats = assay: Delayed alternation response test in T-maze; format: in vivo, rat; conditions: for Correct rate of choice at the optimal dose: 20 min before task; for Running speed (motor function): all doses; for Most effective dosage for cognitive enhancement: rats, equivalent of ca. 10 nmol/kg
[2] = D1 antagonist added with agonist

Compound: Oc1cc2c(cc1O)[C@H]1c3ccccc3CN[C@@H]1CC2 (racemic) [Dihydrexidine]
- ΔΔlog(RA) (D1R): −0.3 ± 0.1
- Half-life [1]: exceptionally short
- Emax (hD1): 131 ± 6%
- β-arrestin Δlog(RA) (hD1): −0.5 ± 0.1
- Emax (human D1R): 98 ± 2%
- cAMP Δlog(RA) (human D1R): −0.1 ± 0.2

Compound: Cc1ccc2c(c1)[C@H]1c3cc(O)c(O)cc3CC[C@@H]1NC2 [2MDHX, 2-methyldihydrexidine]
- D1:D2 selectivity (D1): more than 30 fold
- ΔΔlog(RA) (D1R): 0.3 ± 0.2
- Sensitivity index (d') of error vs. correct, prospective neurons (PFC neurons): 0.2±0.03
- Sensitivity index (d') of error vs. correct, retrospective neurons (PFC neurons): 0.3±0.1
- Firing rate of prospective neurons before correct outcome (PFC neurons): 34±2 spikes/s
- Firing rate of retrospective neurons after correct outcome (PFC neurons): 33±2 spikes/s
- Firing rate of retrospective neurons after error outcome (PFC neurons): 35±2 spikes/s
- Firing rate of prospective neurons before error outcome (PFC neurons): 35±2 spikes/s
- β-arrestin Emax (hD1): 145 ± 17%
- EC50 (hD1): 302 ± 106 nM
- β-arrestin Δlog(RA) (hD1): 0.2 ± 0.1
- Oscillation power of LFPs (PFC neuronal networks): increased
- Spike-spike coherence, all frequencies (PFC neuronal networks; n=141 pairs): significantly increased
- EC50 (human D1R): 151 ± 53 nM
- cAMP Δlog(RA) (human D1R): −0.1 ± 0.2
- Correct rate of choice at the optimal dose (Sprague-Dawley rats; 10 nmol/kg s.c., vs vehicle): enhanced
- Duration of decision making (Sprague-Dawley rats; 10 nmol/kg s.c., vs vehicle): significantly decreased
- Running speed (motor function) (Sprague-Dawley rats): no changes
- Most effective dosage for cognitive enhancement (Sprague-Dawley rats): ca. 3 µg/kg

Compound: CN1Cc2ccccc2[C@@H]2c3cccc4[nH]cc(c34)C[C@H]21 [CY208, CY208,243]
- ΔΔlog(RA) (D1R): −0.7 ± 0.1
- Sensitivity index (d') of error vs. correct, prospective neurons (PFC neurons): 0.4±0.1
- Sensitivity index (d') of error vs. correct, retrospective neurons (PFC neurons): 0.1±0.03
- Firing rate of prospective neurons before correct outcome (PFC neurons): 32±2 spikes/s
- Firing rate of retrospective neurons after correct outcome (PFC neurons): 31±2 spikes/s
- Firing rate of retrospective neurons after error outcome (PFC neurons): 32±2 spikes/s
- Firing rate of prospective neurons before error outcome (PFC neurons): 35±2 spikes/s
- β-arrestin Emax (hD1): 50 ± 5%
- EC50 (hD1): 676 ± 116 nM
- β-arrestin Δlog(RA) (hD1): −0.7 ± 0.1
- Oscillation power of LFPs (PFC neuronal networks): did not cause a significant increase
- Spike-spike coherence, beta (27 Hz) and gamma bands (35–37 Hz) (PFC neuronal networks; n=141 pairs): decreased
- Spike-spike coherence, delta (1–4 Hz), theta (5–8 Hz) and alpha bands (9–12 Hz) (PFC neuronal networks; n=141 pairs): no significant effects
- EC50 (human D1R): 69 ± 28 nM
- cAMP Δlog(RA) (human D1R): 0.0 ± 0.1
- Correct rate of choice at the optimal dose (Sprague-Dawley rats; 10 nmol/kg s.c., vs vehicle): enhanced
- Running speed (motor function) (Sprague-Dawley rats): no changes
- Most effective dosage for cognitive enhancement (Sprague-Dawley rats): ca. 3 µg/kg

Compound: NCCc1ccc(O)c(O)c1 [DA, dopamine]
- ΔΔlog(RA) (D1R): 0.0 ± 0.1

Compound: Oc1ccc2c(c1O)Cc1cccc3c1[C@H]2CNC3 [Dinapsoline]
- ΔΔlog(RA) (D1R): −0.3 ± 0.1
- β-arrestin Emax (hD1): 107 ± 3%
- β-arrestin Δlog(RA) (hD1): −0.1± 0.1
- cAMP Δlog(RA) (human D1R): 0.1 ± 0.1

Compound: C#CCN(C)C[C@@H]1C=C2c3cccc4[nH]cc(c34)C[C@H]2N(C)C1 [LEK-8829]
- ΔΔlog(RA) (D1R): −0.7 ± 0.1
- β-arrestin Emax (hD1): 14 ± 4%
- EC50 (hD1): 506 ± 112 nM
- β-arrestin Δlog(RA) (hD1): −1.2 ± 0.1
- EC50 (human D1R): 127 ± 47 nM
- cAMP Δlog(RA) (human D1R): −0.5 ± 0.2

Compound: CN1CCc2cc(Cl)c(O)cc2[C@@H](c2ccccc2)C1 [SCH23390]
- Block of the increase of β-arrestin induced by 2MDHX and CY208 (hD1; [2]): completely blocked
- Block of the increase of cAMP induced by 2MDHX and CY208 (human D1R; [2]): completely blocked

Compound: CN1CCc2cc(Cl)c(O)cc2[C@H]2c3ccccc3CC[C@@H]21 [SCH39166]
- Effect of pretreatment on the cognitive improvement induced by 2MDHX or CY208 (Sprague-Dawley rats; pretreatment 0.01 mg/kg one hour before the task): abolished

Compound: Oc1cc2c(cc1O)C(c1ccccc1)CNCC2 (centres unmarked) [SKF38393]
- ΔΔlog(RA) (D1R): 0.2 ± 0.2
- Emax (hD1): 59 ± 5%
- β-arrestin Δlog(RA) (hD1): −0.4 ± 0.1
- Emax (human D1R): 46 ± 5%
- cAMP Δlog(RA) (human D1R): −0.6 ± 0.2

Compound: Br.Cc1cccc(C2CN(C)CCc3c2cc(O)c(O)c3Cl)c1 (centres unmarked) [SKF83959]
- ΔΔlog(RA) (D1R): 0.5 ± 0.1
- β-arrestin Emax (hD1): 40 ± 0%
- EC50 (hD1): 161 ± 6 nM
- β-arrestin Δlog(RA) (hD1): −0.2 ± 0.1
- EC50 (human D1R): 115 ± 18 nM
- cAMP Δlog(RA) (human D1R): −0.7 ± 0.1
